The results in this text go back to the SangsterLogP compilation.

SMILES strings stand for the structures.

For `CCC=CCCOC(=O)C(C)c1ccc2cc(OC)ccc2c1` (centres undefined), the logP amounted to 6.21.
For `COc1ccc2cc(C(C)C(=O)OC3CCCCC3)ccc2c1` (centres undefined) the value was 5.82; for `COc1ccc2cc(C(C)C(=O)OCC=C(C)CCC=C(C)C)ccc2c1` (centres undefined), 7.77.
For the compound `COc1ccc2cc(C(C)C(=O)OCC(C)O)ccc2c1` (centres undefined), the logP amounted to 3.74.
For `CCCCCCCOC(=O)C(C)c1ccc2cc(OC)ccc2c1` (centres undefined) the value was 7.21; for `CCOC(=O)C(C)c1ccc2cc(OC)ccc2c1` (centres undefined), 4.78.
For `COc1ccc2cc(C(C)C(=O)OC3CCCCC3O)ccc2c1` (centres undefined) the value was 4.71; for `COc1ccc2cc(C(C)C(=O)Oc3ccccc3)ccc2c1` (centres undefined), 5.17; for `COc1ccc2cc(C(C)C(=O)OCCOCCO)ccc2c1` (centres undefined), 3.79.
For `CCC#CCCOC(=O)C(C)c1ccc2cc(OC)ccc2c1` (centres undefined) the value was 5.91.
Compound `CCCCCCOC(=O)C(C)c1ccc2cc(OC)ccc2c1` (centres undefined) had a logP of 6.54.
The value for `COC(=O)C(C)c1ccc2cc(OC)ccc2c1` (centres undefined) was 4.6; that for `CCCOC(=O)C(C)c1ccc2cc(OC)ccc2c1` (centres undefined) was 5.34.
For `COc1ccc2cc(C(C)C(=O)OCCO)ccc2c1` (centres undefined) the value was 3.05; for `COc1ccc2cc(C(C)C(=O)OCCCCCCO)ccc2c1` (centres undefined), 4.74.
The value for `CC=CC=CCOC(=O)C(C)c1ccc2cc(OC)ccc2c1` (centres undefined) was 6.31; that for `COc1ccc2cc(C(C)C(=O)OC(C)C)ccc2c1` (centres undefined) was 4.98.
The compound `CCCCCCCCOC(=O)C(C)c1ccc2cc(OC)ccc2c1` (centres undefined) had a logP of 7.66.
The value for `COc1ccc2cc(C(C)C(=O)OCCCO)ccc2c1` (centres undefined) was 3.73; that for `CCCCOC(=O)C(C)c1ccc2cc(OC)ccc2c1` (centres undefined) was 5.81; that for `COc1ccc2cc(C(C)C(=O)OC3CCCCC3=O)ccc2c1` (centres undefined) was 4.96.
The value for `COc1ccc2cc(C(C)C(=O)OCC(C)=O)ccc2c1` (centres undefined) was 4.06; that for `COc1ccc2cc(C(C)C(=O)OC3COC4C(O)COC34)ccc2c1` (centres undefined) was 3.14.
For the compound `CCCCCOC(=O)C(C)c1ccc2cc(OC)ccc2c1` (centres undefined), the logP was 6.02.
